# In patent US6930131B2, “Aryl substituted 3-ethoxy phenyl trifluoromethane sulfonamides for the treatment of non-insulin dependent diabetes mellitus (NIDDM)” (Wyeth, priority 2002, dated 2005):
# pIC50: −log10 of the molar value.
# Key:
# ob/ob (C57 B1/6J) mice [1] = conditions: reference compound, 20 mg/kg/day; cited from earlier work
# ob/ob (C57 B1/6J) mice [2] = test: Hypoglycemic effect in diabetic ob/ob mice; format: in vivo, mouse; conditions: 10 mg/kg p.o.
# Method: Hypoglycemic Effect in Diabetic OB/OB Mice
# Procedure: In each study, male or female ob/ob (C57 B1/6J) mice and their mean litermates (ob/+ or +/+, Jackson Laboratories) ages 2 to 5 months (10 to 65 g) were randomized according to plasma glucose into 4 groups of 10 mice. The mice were housed 5 per cage and were maintained on normal rodent chow with water ad libitum. Mice receive compound daily by gavage (suspended in 0.5 ml of 0.5% methyl cellulose); dissolved in the drinking water; or admixed in the diet. The dose of compounds given ranges from 2.5 to 200 mg/kg body weight/day. Body weight of fed animals was measured at the beginning of each week and doses for the entire week were calculated using this weight and were expressed in terms of the active moiety of the compound. Control mice receive vehicle only. […]
# Measurements: The plasma was isolated by centrifugation and the concentration of glucose was measured enzymatically on an Abbott V. P. Analyzer and the plasma concentration of insulin was determined by radioimmunoassay (Heding, 1972)
# Analysis of variance followed by Dunnett's Comparison Test (one-tailed) was used to estimate the significant difference between the plasma glucose values from the control group and the individual compound treated groups (CMS SAS Release 5.18). A compound will be considered active if the difference has a p<0.05.
# [3] = test system: Hepatocytes Isolated and Cultured from Obese Zucker (fa/fa) Rats; test: Inhibition of glucose output from hepatocytes isolated and cultured from obese Zucker (fa/fa) rats; format: cell-based, rat; conditions: Rattus norvegicus, Hepatocyte; inhibition of glucose output vs glucagon stimulated cultured hepatocytes
# Method: Inhibition of Glucose Output from Hepatocytes Isolated and Cultured from Obese Zucker (fa/fa) Rats and their Lean Controls
# Culturing of Hepatocytes: Isolated hepatocytes were plated on 12 well rat-tail collagen coated plates at a cell density of 5×10(5) cells/ml (approximately 1 ml of cell suspension per well). Following a one hour attachment period in which plates were incubated in a CO2 incubator at 37 deg C. (95% O2, 5% CO2), the supernatant containing unattached hepatocytes was removed and replaced with fresh media (1 ml/well) containing 1 μM dexamethasone and 100 pM insulin. Cells were maintained at 37 deg C. for 48 hours in a 95% O2, 5% CO2 environment. At the end of the first 24 hours, the media was aspirated off of the wells and replaced with fresh media containing the same concentrations of dexamethasone and insulin as described earlier. Treatment with Drugs and Assessment of Glucose Output: Drugs were routinely added with fresh media 24 hours after the initial attachment period. Eighteen hours later, media was aspirated and 500 μl of fresh Hank's buffer, Buffer D (glucose-free) supplemented with hormones, gluconeogenic substrates and drug(s) was added to each well and incubated for 4 hours. At the end of the 4 hour incubation, media from each well was removed and assayed for glucose content using the hexokinase/glucose-6-phosphate dehydrogenase coupled assay on the Boehringer Mannheim model 911 auto analyzer. Glucose concentration was expressed as μg/ml. Three of the plates from each treated group were frozen for subsequent determination of protein content. Two plates from each treatment group were used to assess the cytotoxicity of drug(s) and other agents as determined by the MTT (tetrazolium) dye reduction method (see below).
# Assessment of Cytotoxicity using MTT Dye Reduction Assay: Two plates with no insulin treatment and two plates with 10^−8 M insulin treatment were used for the MTT dye reduction assay. Following removal of media from the plates for measurement of glucose output, wells were washed once with 1 ml of Hank's buffer (0.5% BSA). Aliquots of […] of Hank's buffer (1.1% BSA) and […] MTT solution (5 mg MTT/ml in phosphate buffered saline (PBS) filtered through 0.45 micron syringe filter) were added to each well. Plates were incubated for one hour at 37 deg C. After one hour incubation, the MTT dye solution was aspirated off and […] of HCL/isopropanol solution (8 ml of 1 N HCL and 192 ml of isopropanol) was added to each well. HCL/isopropanol solution was mixed by drawing liquid into a pipetman 2 to 3 times and then carefully transferred into a 96 well flat bottom plate. The 96 well plate was read on a plate reader (UV max kinetic microplate reader, Molecular Devices) at 570 nm test wavelength and 650 nm reference wavelength. The results were expressed as % inhibition from the control (lactate and glucagon treated) well.
# Protein test procedure: Three plates with no insulin treatment and three plates with 10^−8 M insulin treatment were used for protein determination. After supernatant has been removed for determination of glucose output the plates were frozen and stored at −20 deg C. until ready to assay for protein content. Prior to determination of protein the plates were defrosted at room temperature for 15 minutes. An aliquot of 1 ml 0.1 N NaOH was added to each well. Plates were incubated at 4 deg C. overnight. Solutions for measurement of protein content were mixed by pipetting the NaOH solution up and down several time with a 1 ml pipette and then transferring to a small polyethylene tube. Protein determination was based on that of the Pierce BCA protein assay protocol (Pierce cat. no. 23223). A set of protein standards (0.2, 0.4, 0.6, 0.8, and 1 mg/ml BSA) was prepared by serial dilution of 1 mg/ml bovine serum albumin with 0.1 N NaOH, and 40 μl of each standard, or control blank was pipetted into a 96-well plate in duplicate. Each unknown protein sample (40 μl) was tested in triplicate. […]
melting point [°C],Compound,lowering in plasma glucose (ob/ob (C57 B1/6J) mice [1]),"Reduction in Plasma Glucose Day 1 (6 hr) p.o. (ob/ob (C57 B1/6J) mice [2]; Day 1, 6 hr) [%]","Reduction in Plasma Glucose Day 3 (6 hr) p.o. (ob/ob (C57 B1/6J) mice [2]; Day 3, 6 hr) [%]",pIC50 [3]
,sodium metavanadate,significant lowering in plasma glucose,,,
114 to 116,"O=S(=O)(Nc1cccc(CCOCc2csc(-c3ccc(Cl)cc3)n2)c1)C(F)(F)F [Example 53, N-(3-{2-[2-(4-Chloro-phenyl)-thiazol-4-ylmethoxy]-ethyl}-phenyl)-C,C,C-trifluoro-methanesulfonamide]",,−36,−26,5.00
